This is an account of results in ChEMBL document CHEMBL5463723, “Data for DCP probe BIBO3304” (2023).

Assay [1] has as its target T1, Neuropeptide Y receptor type 2 (Homo sapiens, UniProt P49146).
T1 sequence (P49146 whole entry): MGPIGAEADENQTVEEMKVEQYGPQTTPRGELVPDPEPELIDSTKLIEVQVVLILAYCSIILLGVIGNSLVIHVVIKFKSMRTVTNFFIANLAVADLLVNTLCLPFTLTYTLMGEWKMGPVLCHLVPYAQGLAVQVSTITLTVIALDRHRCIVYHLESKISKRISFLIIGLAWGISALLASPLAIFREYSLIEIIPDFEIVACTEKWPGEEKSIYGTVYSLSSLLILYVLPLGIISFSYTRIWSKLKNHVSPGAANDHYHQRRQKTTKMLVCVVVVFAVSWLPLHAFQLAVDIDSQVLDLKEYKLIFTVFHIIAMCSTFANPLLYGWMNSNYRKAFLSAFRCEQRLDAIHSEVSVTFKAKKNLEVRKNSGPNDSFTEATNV
The assay can be described thus: Radioligand binding assay (NPY2R, SMS-KAN cells). In kind it is cell-based.

In assay [2] the target is T1, Neuropeptide Y receptor type 2. In words: Radioligand binding assay (NPY2R, BHK). In kind it is cell-based, BHK-21.
For assay [3], the target named is Neuropeptide Y receptor type 4 (Homo sapiens, UniProt P50391). In words: Radioligand binding assay (human NPY4R, CHO cells). In kind it is cell-based.
Chain of Neuropeptide Y receptor type 4 (Homo sapiens, UniProt P50391) (P50391 whole entry): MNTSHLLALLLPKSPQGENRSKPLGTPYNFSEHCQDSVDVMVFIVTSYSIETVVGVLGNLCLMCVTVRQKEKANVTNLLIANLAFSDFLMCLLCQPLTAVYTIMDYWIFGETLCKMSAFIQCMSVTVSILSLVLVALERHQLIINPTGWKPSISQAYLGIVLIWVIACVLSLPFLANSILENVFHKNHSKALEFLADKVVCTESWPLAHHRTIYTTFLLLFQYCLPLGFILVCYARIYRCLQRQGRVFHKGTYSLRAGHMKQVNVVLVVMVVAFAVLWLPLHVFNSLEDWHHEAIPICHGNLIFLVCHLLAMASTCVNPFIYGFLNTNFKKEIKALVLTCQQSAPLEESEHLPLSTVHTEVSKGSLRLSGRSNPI
Assay [4] deals with Neuropeptide Y receptor type 4 (Rattus norvegicus, UniProt Q63447). In words: Radioligand binding assay (rat NPY4R, CHO cells). In kind it is cell-based.
Chain of Neuropeptide Y receptor type 4 (Rattus norvegicus, UniProt Q63447) (Q63447 whole entry): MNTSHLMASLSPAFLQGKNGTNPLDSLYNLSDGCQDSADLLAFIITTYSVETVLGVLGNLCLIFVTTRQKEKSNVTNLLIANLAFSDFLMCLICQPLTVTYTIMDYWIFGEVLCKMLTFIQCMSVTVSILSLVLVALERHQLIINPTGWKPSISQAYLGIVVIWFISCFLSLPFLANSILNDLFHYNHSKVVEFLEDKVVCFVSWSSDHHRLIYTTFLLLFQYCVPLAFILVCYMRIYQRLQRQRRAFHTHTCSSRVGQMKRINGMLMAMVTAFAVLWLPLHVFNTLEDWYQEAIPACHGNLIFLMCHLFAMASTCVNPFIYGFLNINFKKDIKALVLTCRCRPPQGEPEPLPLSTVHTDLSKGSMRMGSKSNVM
The target in assay [5] is Neuropeptide Y receptor type 5 (Homo sapiens, UniProt Q15761). In words: Radioligand binding assay (human NPY5R, HEK293). In kind it is cell-based.
Chain of Neuropeptide Y receptor type 5 (Homo sapiens, UniProt Q15761) (Q15761 whole entry): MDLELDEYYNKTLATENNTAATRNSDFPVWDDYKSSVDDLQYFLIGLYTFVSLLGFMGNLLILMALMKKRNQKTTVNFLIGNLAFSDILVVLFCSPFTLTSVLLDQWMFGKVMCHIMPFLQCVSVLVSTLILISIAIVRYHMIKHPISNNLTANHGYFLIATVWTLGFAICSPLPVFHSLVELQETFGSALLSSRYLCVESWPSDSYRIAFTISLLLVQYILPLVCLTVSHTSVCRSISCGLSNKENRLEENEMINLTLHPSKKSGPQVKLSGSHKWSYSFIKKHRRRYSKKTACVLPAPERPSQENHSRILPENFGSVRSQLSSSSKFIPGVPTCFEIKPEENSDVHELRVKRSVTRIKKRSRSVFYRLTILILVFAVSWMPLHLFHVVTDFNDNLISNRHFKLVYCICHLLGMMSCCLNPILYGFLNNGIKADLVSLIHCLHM
The target of assay [6] is Neuropeptide Y receptor type 5 (Rattus norvegicus, UniProt Q63634). The assay can be described thus: Radioligand binding assay (rat NPY5R, CHO cells). In kind it is cell-based.
Chain of Neuropeptide Y receptor type 5 (Rattus norvegicus, UniProt Q63634) (Q63634 whole entry): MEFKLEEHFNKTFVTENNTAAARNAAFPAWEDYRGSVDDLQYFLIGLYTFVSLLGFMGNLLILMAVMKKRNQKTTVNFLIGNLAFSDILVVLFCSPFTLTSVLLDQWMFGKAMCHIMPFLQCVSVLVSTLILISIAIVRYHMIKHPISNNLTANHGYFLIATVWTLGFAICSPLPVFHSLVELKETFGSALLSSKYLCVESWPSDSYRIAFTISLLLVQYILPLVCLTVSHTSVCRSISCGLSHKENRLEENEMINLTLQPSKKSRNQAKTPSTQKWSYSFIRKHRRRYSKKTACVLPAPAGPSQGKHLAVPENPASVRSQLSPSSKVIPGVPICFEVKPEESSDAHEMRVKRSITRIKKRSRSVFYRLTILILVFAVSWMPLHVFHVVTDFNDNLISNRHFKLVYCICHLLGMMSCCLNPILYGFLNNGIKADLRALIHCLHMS

Molecules are shown by their SMILES.

For the compound `N=C(N)NCCC[C@H](NC(=O)C(c1ccccc1)c1ccccc1)C(=O)NCc1ccc(CNC(N)=O)cc1`, the IC50 is on record as > 10 µM (not active) in assay [1]; > 10 µM (not active) in assay [2]; 24 µM (not active) in assay [3]; > 10 µM (not active) in assay [4]; 28 µM (not active) in assay [5]; 23 µM (not active) in assay [6].

By IC50 is commonly meant the point on the concentration scale where inhibition reaches its midpoint. Low readings indicate greater potency, high ones weaker potency.
